In ChEMBL document CHEMBL6177936, “Stachydrine, a pyrrole alkaloid with promising therapeutic potential against metabolic syndrome and associated organ dysfunction” (RSC Med Chem, 2024):

Tests used:
[1] = MRT (0 to infinity) in Sprague-Dawley rat at 9.86 mg/kg, po by UPLC-MS/MS analysis; assay type: ADME, organism-based; conditions: in vivo
[2] = AUC (0 to infinity) in Wistar rat at 10 mg/kg, iv measured for 24 hrs by LC-MS/MS analysis; assay type: ADME, organism-based; conditions: in vivo
[3] = Tmax in KYDS rat at 1 g/Kg, IG by LC-MS/MS analysis; assay type: ADME; conditions: in vivo, po, 1000 mg/kg
[4] = Half life in Wistar rat at 166.3 mg/kg, po; assay type: ADME, organism-based; conditions: in vivo
[5] = Clearance in Wistar rat at 10 mg/kg, iv measured for 24 hrs by LC-MS/MS analysis; assay type: ADME, organism-based; conditions: in vivo
[6] = Half life in Sprague-Dawley rat at 15.28 mg/kg, po incubated for 24 hrs by LC-MS/MS analysis; assay type: ADME, organism-based; conditions: in vivo
[7] = AUC(infinity) in CSBS-PD induced Sprague-Dawley rat at 15.28 mg/kg, po incubated for 24 hrs by LC-MS/MS analysis; assay type: ADME, organism-based; conditions: in vivo
[8] = Half life in KYDS rat at 1 g/Kg, IG by LC-MS/MS analysis; assay type: ADME; conditions: in vivo, po, 1000 mg/kg
[9] = Apparent oral clearance in KYDS rat at 1 g/Kg, IG by LC-MS/MS analysis; assay type: ADME; conditions: in vivo, 1000 mg/kg
[10] = MRT(infinity) in CSBS-PD induced Sprague-Dawley rat at 15.28 mg/kg, po incubated for 24 hrs by LC-MS/MS analysis; assay type: ADME, organism-based; conditions: in vivo
[11] = Cmax in Wistar rat at 166.3 mg/kg, po; assay type: ADME, organism-based; conditions: in vivo
[12] = Tmax in CSBS-PD induced Sprague-Dawley rat at 15.28 mg/kg, po incubated for 24 hrs by LC-MS/MS analysis; assay type: ADME, organism-based; conditions: in vivo
[13] = Cmax in Sprague-Dawley rat at 9.86 mg/kg, po by UPLC-MS/MS analysis; assay type: ADME, organism-based; conditions: in vivo
[14] = Tmax in Wistar rat at 166.3 mg/kg, po; assay type: ADME, organism-based; conditions: in vivo
[15] = AUC (0 to infinity) in Wistar rat at 166.3 mg/kg, po; assay type: ADME, organism-based; conditions: in vivo
[16] = MRT (0 to infinity) in KYDS rat at 1 g/Kg, IG by LC-MS/MS analysis; assay type: ADME; conditions: in vivo, po, 1000 mg/kg
[17] = Cmax in CSBS-PD induced Sprague-Dawley rat at 15.28 mg/kg, po incubated for 24 hrs by LC-MS/MS analysis; assay type: ADME, organism-based; conditions: in vivo
[18] = AUC(0 to infinity) in KYDS rat at 1 g/Kg, IG by LC-MS/MS analysis; assay type: ADME; conditions: in vivo, po, 1000 mg/kg
[19] = Cmax in Wistar rat at 10 mg/kg, iv measured for 24 hrs by LC-MS/MS analysis; assay type: ADME, organism-based; conditions: in vivo
[20] = AUC (0 to infinity) in Sprague-Dawley rat at 9.86 mg/kg, po by UPLC-MS/MS analysis; assay type: ADME, organism-based; conditions: in vivo
[21] = Half life in Sprague-Dawley rat at 9.86 mg/kg, po by UPLC-MS/MS analysis; assay type: ADME, organism-based; conditions: in vivo
[22] = Tmax in Sprague-Dawley rat at 9.86 mg/kg, po by UPLC-MS/MS analysis; assay type: ADME, organism-based; conditions: in vivo
[23] = Half life in CSBS-PD induced Sprague-Dawley rat at 15.28 mg/kg, po incubated for 24 hrs by LC-MS/MS analysis; assay type: ADME, organism-based; conditions: in vivo
[24] = MRT (0 to infinity) in Wistar rat at 166.3 mg/kg, po; assay type: ADME, organism-based; conditions: in vivo
[25] = Cmax in KYDS rat at 1 g/Kg, IG by LC-MS/MS analysis; assay type: ADME; conditions: in vivo, po, 1000 mg/kg

`C[N+]1(C)CCC[C@H]1C(=O)[O-]` showed an MRT inf [1] of 4.44 h, an AUC [2] of 12026.7 h/ng/mL and a Tmax [3] of 1.08 h. For the same compound, the half-life [4] was 1.64 h, the clearance [5] was 15.5 mL/min/kg and the half-life [6] was 3.89 h. It also gave an AUC [7] of 99240 ng·h/mL, a half-life [8] of 6.59 h and a CL/F [9] of 1 mL/min/kg. It also gave an MRT inf [10] of 9.97 h, a Cmax [11] of 1610 ng/mL and a Tmax [12] of 2.83 h. The Cmax [13] was 673 ng/mL, the Tmax [14] was 0.75 h and the AUC(0-inf) [15] was 2900 ng·h/mL. It also gave an MRT inf [16] of 9.21 h, a Cmax [17] of 14000 ng/mL and an AUC [18] of 1279.31 µg/L/h. It also gave a Cmax [19] of 6400 ng/mL, an AUC(0-inf) [20] of 2800 ng·h/mL and a half-life [21] of 3.79 h. The Tmax [22] was 1.5 h, the half-life [23] was 5.51 h and the MRT inf [24] was 1.67 h. For the same compound, the Cmax [25] was 135 ng/mL.
